Measured values: patent US20230405062A1, “GOS PRE-CONDITIONING L. REUTERI AND GOS IN FINAL FORMULATION” (BIOGAIA AB, priority 2021, published 2023)

What was measured:
S. thermophilus NCC2496 = test: Survival of S. thermophilus in colon (qPCR), short SHIME model; parameters: species or system Streptococcus thermophilus; settings: 48 h incubation, FIG. 4A
Description: (§1) In this experiment, a simplified simulation of the continuous Simulator of the Human Microbial Ecosystem (SHIME®) was used. This SHIME® model has been extensively used for more than 20 years for both scientific and industrial projects and has been validated with in vivo parameters (see for example Van den Abbeele et al., Arabinoxylo-Oligosaccharides and Inulin Impact Inter-Individual Variation on Microbial Metabolism and Composition, Which Immunomodulates Human cells, J. Agric. Food chem. 2018, 66(5): 1121-1130).
For the current set of experiments a two-stage batch system mimicking the upper gastro-intestinal tract (Upper GIT, stomach and small intestine) and colonic conditions were used as simplified SHIME® system (FIG. 1). Cow milk-based toddler beverage, also called Growing-up-milk, containing minerals adapted for the age group was used in these studies. […]
(§2) L. reuteri strain and pre-conditioned L. reuteri strain were inoculated at 1x10^9 CFU/reactor. L. reuteri were quantified by plating on MRS medium, while S. thermophilus was plated on M17 medium supplemented with lactose. […] Quantities of L. reuteri and S. thermophilus powders were then calculated to target 1x10^9 CFU/colonic reactor. […]
(§3) Quantitative polymerase chain reaction (qPCR) was performed to selectively enumerate Lactobacilli and Streptococci. qPCR was performed at 0 h and after 48 h of colonic incubation.

L. reuteri DSM 17938 = test: Survival of L. reuteri in colon (qPCR), short SHIME model; parameters: species or system Lactobacillus reuteri; settings: for survival of L. reuteri in the colon in presence or absence of GOS: 48 h incubation, qPCR, FIG. 4A
Description: as §1
For the current set of experiments a two-stage batch system mimicking the upper gastro-intestinal tract (Upper GIT, stomach and small intestine) and colonic conditions were used as simplified SHIME® system (FIG. 1). Cow milk-based toddler beverage, also called Growing-up-milk, containing minerals adapted for the age group was used in these studies.
Fresh fecal material was collected from an infant donor. Fecal suspension was prepared and mixed with a protectant. At the start of the short-term colonic incubation, the test ingredients (L. reuteri strain and Streptococcus thermophilus strain) were added to sugar-depleted nutritional medium containing basal nutrients present in the colon (e.g., host-derived glycans such as mucin).
L. reuteri strain and S. thermophilus strain were inoculated at 1×10^9 CFU/reactor. […]
as §2, §3

Substance	survival of S. thermophilus in the colon in presence or absence of GOS (S. thermophilus NCC2496)	survival of S. thermophilus in the colon in presence or absence of GOS (S. thermophilus NCC2496; listed as Streptococcus thermophilus NCC2496)	survival of L. reuteri in the colon in presence or absence of GOS (L. reuteri DSM 17938)	survival of L. reuteri in the colon in presence or absence of GOS (L. reuteri DSM 17938; listed as L. reuteri DSM17938)	survival of L. reuteri in the colon in presence of GOS, pre-conditioned vs non-pre-conditioned (L. reuteri DSM 17938; cell counts at 48 h, FIG. 4B)
Streptococcus thermophilus NCC2496 [S. thermophilus]	impaired by the presence of GOS	negative effect of GOS	–	–	–
Lactobacillus reuteri DSM 17938 [L. reuteri]	–	–	enhanced by the presence of GOS	positive effect of GOS	survives well
